The values that follow come from patent US20060140869A1, “Polymeric contrast agents for use in medical imaging” (priority 2004, published 2006).

This test relates to rat mammary adenocarcinoma (Mat B) tumor. Description: MR imaging of subcutaneous Mat B tumors in rats after intravenous injection of polymeric contrast agent. Format: in vivo. Conditions: Mat B tumor in Fisher female rats. The protocol:
Fisher female rats were implanted subcutaneously with rat mammary adenocarcinoma cells (ATTC Mat B cells) that were grown to a suitable density in tissue culture. The implanted cells grew into tumors of 1-2 cm diameter in about 10 to 14 days and continued to grow to larger sizes when experiments extended beyond that time frame.
The reptating polymer that was used (Polylysine-Gd-DTPA) was synthesized using a synthesis method described above with polymer length of 780 monomer units, molecular weight of 460 kDaltons, and about 98% of lysines acylated with DTPA (i.e. about 764 Gd ions). The animals were injected intravenously at a dose of 0.025 mmoles Gd/kG. FIG. 1 are a series of images taken wherein the imaging was done pre-injection, one minute after injection, 60 minutes after injection, and 24 hours after injection with a T1 weighted spin echo pulse sequence (TR=250 ms, TE=9 ms), 12 centimeter FOV, 1 millimeter slices. Receive coil was a solenoid coil of about 5 centimeters diameter. Imaging was done on a Signa 1.5 Tesla scanner.
FIG. 2 is a graph of the slopes in signal change for all the pixels in the tumor and the highest 10% of pixels in the tumor. The signals are heterogenous in space due to angiogenesis being most prevalent in the outer rim of the tumor. Thus in order to capture the regions of interest with high permeability, the average signal associated with the pixels of the entire tumor in the image slice is plotted in addition to the average signal associated with the highest 10% of the pixels. The highest 10% of the pixels represents the hypermeable regions associated with angiogenic processes. The use of all pixels represents the average values for the entire tumor which includes then the center of tumors which are often necrotic and unreactive in terms of blood perfusion. These regions are not biologically relevant and thus the total average values have more “noise” that are associated with the necrotic processes which are not of direct interest in the present case. […]

The mark [1] stands for this setting: linear regression fit, intravenous injection, T1 weighted spin echo, 1.5 Tesla.

In the case of Polylysine-Gd-DTPA [Example 1], the “magnetic resonance signal change compared with the polymer of Example 2” value (0.025 mmoles Gd/kG intravenously) is given as “enhanced magnetic resonance signals”. Take Polylysine-Gd-DTPA [Example 2]: under setting [1], the “slope of signal change, all the pixels in the tumor” value was 7 % per hour and the “slope of signal change, highest 10% of the pixels in the tumor” value turned out to be 14 % per hour.
